Measurements reported in patent publication US20140302515A1, “BIOMARKERS FOR BREAST CANCER PATIENTS” (TUSKEGEE UNIVERSITY, priority 2010, published 2014).

What was measured:
Format in all cases: cell-based
Kaiso [1] = assay: EGF treatment: Kaiso nuclear localization by immunofluorescence and subcellular fractionation; conditions: EGF 10 ng/ml; from 30 minutes to 24 hour; immunofluorescence; DU-145, DU-145WT, PC-3
Experimental: Unless otherwise set forth herein, immunofluorescence studies comprised plating cells on a 4-chamber slide with 20000 cells. After treatment, they were then washed with PBS, fixed for 30 minutes with cold methanol at room temperature, incubated at room temperature with Lysis Buffer containing 0.1 M Tris, 0.15M NaCl, 0.01 M EGTA, 1% Triton and 1 mM PMSF, blocked for 30 mins in 5% BSA dissolved in PBS, treated with primary antibody (1:100) overnight in the cold room. Cells were stained for p120^ctn and Kaiso.
Next, steps were taken to determine if EGFR signaling was involved in increasing Kaiso levels and/or cytoplasmic to nuclear trans-localization of Kaiso. All three cell lines were treated with EGF (10 ng/ml) over increasing time intervals of 30 minutes, 1 hour, and 24 hours. […] A key finding within DU-145 cells that lack nuclear Kaiso expression was the observation of a predominant Kaiso nuclear staining. […] To determine the specificity of EGFR activity on Kaiso expression levels, an EGFR specific kinase inhibitor, PD153035, was also utilized in the presence or absence of EGF treatment.

Kaiso [2] = assay: EGF treatment: Kaiso mRNA and protein levels by real-time RT-PCR and immunoblot
Experimental: Unless otherwise herein described, growth factors, such as recombinant human epidermal growth factor (“EGF”), were obtained commercially and was added to serum free media of DMEM and T-media with antibiotics.
Since EGFR over-expressing DU-145WT cells express higher levels of Kaiso than the original DU-145 cells, experiments were further conducted to determine if EGFR signaling would have a direct effect on Kaiso localization and/or expression in prostate cancer cells. As an initial experiment, a dose dependent treatment of EGF consisting of 10, 50 and 100 ng/ml was performed.

p120^ctn = assay: EGF stimulation: p120ctn tyrosine residues Y228, Y96, Y291; conditions: after 24 hours, DU-145 and DU-145WT
Experimental: Previous reports have observed that p120^ctn has a specific kinase activity for EGFR on tyrosine residue Y228. Additionally, p120^ctn is a known binding partner for Kaiso. Therefore, experiments were conducted determine whether this was apparent in prostate cancer cell lines as well. Given that p120^ctn has multiple tyrosine residues, including Y228, Y96, Y291, located within the regulator domain, the effect of EGF stimulation on each of these residues was studied. […] It was observed by immunofluorescence that Y228 expression remained cytosolic after 24 hours of EGF treatment.

EGFR = EGFR kinase inhibitor treatment, with or without EGF: Kaiso expression levels and nuclear staining
Experimental: Next, steps were taken to determine if EGFR signaling was involved in increasing Kaiso levels and/or cytoplasmic to nuclear trans-localization of Kaiso. All three cell lines were treated with EGF (10 ng/ml) over increasing time intervals of 30 minutes, 1 hour, and 24 hours. […] To determine the specificity of EGFR activity on Kaiso expression levels, an EGFR specific kinase inhibitor, PD153035, was also utilized in the presence or absence of EGF treatment.

Kaiso expression levels (EGFR; 500 nM) | nuclear Kaiso staining (EGFR; DU-145 and PC-3 cells) | EGF induced increases in Kaiso levels (EGFR; pre-treatment before EGF, DU-145 and PC-3 cells) | Compound | nuclear accumulation of Kaiso (Kaiso [1]) | increase in Kaiso mRNA and protein levels (Kaiso [2]; EGF 10 ng/ml (lowest of 10, 50, 100 ng/ml), real-time RT-PCR and immunoblot) | Kaiso increases (Kaiso [2]; EGF 10 ng/ml, 24 hour period, EGFR over-expressing DU145WT cells) [fold] | Kaiso increases at RNA and protein levels (Kaiso [2]; EGF 10 ng/ml, over 24 hour period, DU-145 and PC-3 cells) | expression of p120ctn Y228 (versus Y96 and Y291) (p120^ctn)
 |  |  | EGF: recombinant human epidermal growth factor, obtained commercially | Visible nuclear accumulation of Kaiso | At least a two-fold increase | 4 | incremental Kaiso increases | induced the specific increased expression of Y228
significantly reduced | lack of nuclear Kaiso staining | completely blocked | COc1cc2ncnc(Nc3cccc(Br)c3)c2cc1OC [PD153035] |  |  |  |  | 
